Measurements taken from patent publication US8193328B2, “Identification of modulators of serine protease inhibitor Kazal and their use as anti-cancer and anti-viral agents” (Philadelphia Health & Education Corporation, priority 2005, dated 2012).
Where a SMILES comes first, the peptide text is derived from it. The star is where a group is joined. Cbz = O=C(OCc1ccccc1)*; CH2F = FC*

Key:
caspase 3 = assay: Caspase 3 activity in S2-3 and Huh7T cells (Biovision kit); format: cell-based, human; settings: 40 hours treatment
Description: FIG. 5B. The activation of caspase 3 (CDCA) in S2-3 cells treated with etoposide but not BFA/CHX/Z-VAD. The S2-3 cell and its parental cell Huh7T were either treated with SPDCA inducer BFA/CHX/ZVAD or CDCA inducer etoposide. The caspase activity was determined after […] treatment by Caspase 3 detection kit (Biovision, Mountain View, Calif.).
The same level of apoptosis induced by etoposide in S2-3 cell and Huh7T cell was confirmed by the examination of caspase 3 activity in these cells. After 40 hours treatment, all cells were lysed in […] lysis buffer. […] lysate of each sample was analyzed for caspase 3 activity test using caspase 3 detected kits [Biovision, Mountain View, Calif.]. […] Additionally, the activity of caspase3 was not increased in the cells, in which SPDCA was induced by BFA/CHX, even by double doses [FIG. 5B, B/C/ZX2].

S2-3 cells = assay: Etoposide induced CDCA in S2-3 cells, annexin stain; format: cell-based, human; settings: 400 μM etoposide, 40 hours, data not shown
Description: (§1) FIG. 5A. S2-3 and Huh7T cells were treated with CDCA inducer 400 μM etoposide. After 40 hours, the cells apoptosis was examined in microscope and stained with annexin.
(§2) 10^5 S2-3 and Huh7T cells were seeded in 60 mm dishes. When the cell reached 90% confluent, CDCA inducer etoposide was added. After 28-40 hours, the cell shrinkage, blebbing and detachment from culture was found in both cell lines. At the same time, the strong fluorescence stain by annexin was also observed in both cell lines [FIG. 5A]. The amount of apoptotic cells in two cell lines was very similar. Around 62% S2-3 cell was stained by annexin, while 58% of Huh7T cell was stained after 40 hours treatment [data not shown].

G54 cells = assay: CDCA induced by etoposide in G54 cells; format: cell-based, human; settings: data not shown
Description: (§3) To study the influence of HCV replication upon SPDCA, G54 and Huh7T cells (its parent cell) were seeded in a 60 mm dish. SPDCA was induced by BFA/CHX/Z-VAD. […] The insensitivity of HCV replicon cell to SPDCA was also seen subsequently by annexin staining. Compared to the parental cells, much fewer HCV expressing cells were stained by annexin after being treated with SPDCA inducers BFA/CHX/Z-VAD [FIG. 8C, Annexin]. DNA fragmentation study also support that the HCV expressing cells were more resistant to apoptosis. 70 hours treatment of BFA/CHX/Z-VAD obviously triggered the DNA fragmentation in Huh7T cell, but not in G54 cells [FIG. 8D]. […] In contrast, both HepG2.215 and G54 are sensitive to CDCA induced by etoposide [data not shown].

HepG2.215 cells = assay: CDCA induced by etoposide in HepG2.215 cells; format: cell-based, human; settings: data not shown
Description: as §3

Huh7T cells = assay: Etoposide induced CDCA in Huh7T cells, annexin stain; format: cell-based, human; settings: 400 μM etoposide, 40 hours, data not shown
Description: as §1, §2

HCV replication = assay: Northern blot of HCV RNA in HCV replicon cells after antiviral treatment; format: cell-based, Hepatitis C virus; settings: 10^5 IU/ml overnight
Description: (§4) FIG. 7A-7B. SPIK in the HCV expressing cells. SPIK RNA was detected in the cells with/without HCV replicon as before. HCV RNA was defined by the hybridization of membrane with radio-labeled probe specified HCV.
(§5) FIG. 7B—HCV replicon cells were incubated with HCV polymerase inhibitor 888 (2 mM) 2 days (Lines 3 & 4 duplicate) and 10^5 IU/ml interferon-a overnight (Lines 5 & 6 duplicate) or left untreated (Line 1 & 2 duplicate). The suppressions of HCV RNA and SPIK RNA then were analyzed by Northern blot as before. The smear detected by HCV probe under the band of HCV RNA probably was the replication form of HCV.
(§6) Over-expression of SPIK RNA in G54 cells can be abrogated by inhibition of HCV replication. Treatment of HCV replicon cells with either 2 mM of the HCV polymerase inhibitor 888 for two days or 10^5 IU/ml interferon-a overnight has reduced HCV replication by approximately 90% [FIG. 7B, lane 3-6]. This is consistent with previous reports of these antiviral agents (55, 56).

SPIK RNA = assay: Northern blot of SPIK RNA in G54 HCV replicon cells after antiviral treatment; format: cell-based, human; settings: 10^5 IU/ml overnight
Description: as §4, §5, §6

Compound	caspase 3 activity (caspase 3)	cells stained by annexin (S2-3 cells)	sensitivity to CDCA (G54 cells)	sensitivity to CDCA (HepG2.215 cells)	cells stained by annexin (Huh7T cells) [%]	reduction of HCV replication (HCV replication)	SPIK level (SPIK RNA)
CC(NC(=O)C(NC(=O)OCc1ccccc1)C(C)C)C(=O)NC(CC(=O)O)C(=O)CF (stereo not drawn) [Z-VAD] (Cbz-Val-Ala-Asp-CH2F; configuration not given here)	kept unchanged						
COc1cc([C@@H]2c3cc4c(cc3[C@@H](O[C@@H]3O[C@@H]5CO[C@@H](C)O[C@H]5[C@H](O)[C@H]3O)[C@H]3COC(=O)[C@H]23)OCO4)cc(OC)c1O [etoposide]	at the same level in both cells	Around 62%	sensitive	sensitive	58		
interferon-a						approximately 90%	correspondingly decreased with HCV RNA
